Results from patent US12655116B2, “Substituted isophthalic acid diamides” (Bayer Aktiengesellschaft, priority 2020, dated 2026).

Tests used:
STEME [1] = assay: Pre-emergence herbicidal action against STEME; type: in vivo, Stellaria media; conditions: Stellaria media, 504 h
How it was run: (§1)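 Seeds sown in sandy loam, soil-covered; compound sprayed on soil surface pre-emergence. Application: WP/EC, 600–800 l/ha, 0.2% wetting agent. Readout: visual % damage at 3 weeks.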

AMARE [2] = assay: Post-emergence herbicidal action against AMARE; type: in vivo, Amaranthus retroflexus; conditions: Amaranthus retroflexus, 504 h, 20 g/ha, visual assessment about 3 weeks after treatment, 100% = plants have died, 0% = like control plants
How it was run: (§2)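 Percent herbicidal action is rated by eye about 3 weeks after treatment against untreated controls, where 100% means dead plants and 0% means like controls. Plants in sandy loam are sprayed on green parts at the one-leaf stage with aqueous WP or EC preparations at 600 to 800 l/ha plus 0.2% wetting agent.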

VERPE [3] = assay: Post-emergence herbicidal action against VERPE; type: in vivo, Veronica persica; conditions: Veronica persica, 504 h, 20 g/ha
How it was run: as §2

ECHCG [4] = assay: Pre-emergence herbicidal action against ECHCG; type: in vivo, Echinochloa crus-galli; conditions: Echinochloa crus-galli, 504 h
How it was run: as §1

DIGSA [5] = assay: Pre-emergence herbicidal action against DIGSA; type: in vivo, Digitaria sanguinalis; conditions: Digitaria sanguinalis, 504 h; for pest or weed control at 20 g/ha: dosage 20 g/ha; for pest or weed control at 80 g/ha: dosage 80 g/ha
How it was run: as §1

ALOMY [6] = assay: Post-emergence herbicidal action against ALOMY; type: in vivo, Alopecurus myosuroides; conditions: Alopecurus myosuroides, 504 h, dosage 20 g/ha, visual assessment about 3 weeks after treatment vs untreated controls
How it was run: as §2

MATIN [7] = assay: Post-emergence herbicidal action against MATIN; type: in vivo, Matricaria inodora; conditions: Tripleurospermum inodorum, 504 h; for pest or weed control at 20 g/ha: dosage 20 g/ha
How it was run: as §2

DIGSA [8] = assay: Post-emergence herbicidal action against DIGSA; type: in vivo, Digitaria sanguinalis; conditions: Digitaria sanguinalis, 504 h
How it was run: as §2

MATIN [9] = assay: Pre-emergence herbicidal action against MATIN; type: in vivo, Matricaria inodora; conditions: Tripleurospermum inodorum, 504 h; for pest or weed control at 20 g/ha: dosage 20 g/ha; for pest or weed control at 80 g/ha: dosage 80 g/ha
How it was run: as §1

PHBPU [10] = assay: Post-emergence herbicidal action against PHBPU; type: in vivo, Pharbitis purpurea; conditions: Ipomoea purpurea, 504 h; for pest or weed control at 5 g/ha: dosage 5 g/ha; for pest or weed control at 20 g/ha: dosage 20 g/ha
How it was run: as §2

LOLRI = assay: Pre-emergence herbicidal action against LOLRI; type: in vivo, Lolium rigidum; conditions: Lolium rigidum, 504 h, 80 g/ha
How it was run: as §1

PHBPU [11] = assay: Pre-emergence herbicidal action against PHBPU; type: in vivo, Pharbitis purpurea; conditions: Ipomoea purpurea, 504 h, dosage 80 g/ha
How it was run: as §1

STEME [12] = assay: Post-emergence herbicidal action against STEME; type: in vivo, Stellaria media; conditions: Stellaria media, 504 h, 20 g/ha
How it was run: as §2

AVEFA [13] = assay: Post-emergence herbicidal action against AVEFA; type: in vivo, Avena fatua; conditions: Avena fatua, 504 h, 20 g/ha, visual assessment about 3 weeks after treatment, 100% = plants have died, 0% = like control plants
How it was run: as §2

ABUTH [14] = assay: Pre-emergence herbicidal action against ABUTH; type: in vivo, Abutilon theophrasti; conditions: Abutilon theophrasti, 504 h; for pest or weed control at 80 g/ha: scored visually after 3 weeks vs untreated controls (100% = plants have died, 0% = like control plants); for pest or weed control at 20 g/ha: dosage 20 g/ha, scored visually after 3 weeks vs untreated controls, 100% = plants have died, 0% = like control plants, read-out: Pre-emergence action against ABUTH (herbicidal activity in percent)
How it was run: as §1

ALOMY [15] = assay: Pre-emergence herbicidal action against ALOMY; type: in vivo, Alopecurus myosuroides; conditions: Alopecurus myosuroides, 504 h; 80 g/ha, pre-emergence, scored visually after 3 weeks vs untreated controls (100% = plants have died, 0% = like control plants)
How it was run: as §1

VIOTR [16] = assay: Post-emergence herbicidal action against VIOTR; type: in vivo, Viola tricolor; conditions: Viola tricolor, 504 h
How it was run: as §2

VIOTR [17] = assay: Pre-emergence herbicidal action against VIOTR; type: in vivo, Viola tricolor; conditions: Viola tricolor, 504 h; for pest or weed control at 20 g/ha: dosage 20 g/ha; for pest or weed control at 80 g/ha: dosage 80 g/ha
How it was run: as §1

AVEFA [18] = assay: Pre-emergence herbicidal action against AVEFA; type: in vivo, Avena fatua; conditions: Avena fatua, 504 h, pre-emergence
How it was run: as §1

AMARE [19] = assay: Pre-emergence herbicidal action against AMARE; type: in vivo, Amaranthus retroflexus; conditions: Amaranthus retroflexus, 504 h, scored visually after 3 weeks vs untreated controls, 100% = plants have died, 0% = like control plants
How it was run: as §1

VERPE [20] = assay: Pre-emergence herbicidal action against VERPE; type: in vivo, Veronica persica; conditions: Veronica persica, 504 h, dosage 80 g/ha
How it was run: as §1

SETVI [21] = assay: Pre-emergence herbicidal action against SETVI; type: in vivo, Setaria viridis; conditions: Setaria viridis, 504 h; for pest or weed control at 80 g/ha: dosage 80 g/ha
How it was run: as §1

POLCO = assay: Pre-emergence herbicidal action against POLCO; type: in vivo, Polygonum convolvulus; conditions: Fallopia convolvulus, 504 h, dosage 80 g/ha
How it was run: as §1

ECHCG [22] = assay: Post-emergence herbicidal action against ECHCG; type: in vivo, Echinochloa crus-galli; conditions: Echinochloa crus-galli, 504 h; for pest or weed control at 5 g/ha: dosage 5 g/ha; for pest or weed control at 20 g/ha: dosage 20 g/ha
How it was run: as §2

ABUTH [23] = assay: Post-emergence herbicidal action against ABUTH; type: in vivo, Abutilon theophrasti; conditions: Abutilon theophrasti, 504 h, visual assessment about 3 weeks after treatment vs untreated controls; for pest or weed control at 5 g/ha: dosage 5 g/ha; for pest or weed control at 20 g/ha: dosage 20 g/ha
How it was run: as §2

SETVI [24] = assay: Post-emergence herbicidal action against SETVI; type: in vivo, Setaria viridis; conditions: Setaria viridis, 504 h; for pest or weed control at 20 g/ha: dosage 20 g/ha
How it was run: as §2

| SMILES | pest or weed control at 20 g/ha (AMARE [2]) [%] | pest or weed control at 20 g/ha (VERPE [3]) [%] | pest or weed control at 80 g/ha (ECHCG [4]) [%] | pest or weed control at 20 g/ha (DIGSA [5]) [%] | pest or weed control at 80 g/ha (DIGSA [5]) [%] | pest or weed control at 20 g/ha (ALOMY [6]) [%] | pest or weed control at 20 g/ha (MATIN [7]) [%] | pest or weed control at 5 g/ha (DIGSA [8]) [%] | pest or weed control at 20 g/ha (DIGSA [8]) [%] | pest or weed control at 20 g/ha (MATIN [9]) [%] | pest or weed control at 80 g/ha (MATIN [9]) [%] | pest or weed control at 5 g/ha (PHBPU [10]) [%] | pest or weed control at 20 g/ha (PHBPU [10]) [%] | pest or weed control at 80 g/ha (LOLRI) [%] | pest or weed control at 80 g/ha (PHBPU [11]) [%] | pest or weed control at 20 g/ha (AVEFA [13]) [%] | pest or weed control at 80 g/ha (ABUTH [14]) [%] | pest or weed control at 20 g/ha (ABUTH [14]) [%] | pest or weed control at 80 g/ha (ALOMY [15]) [%] | pest or weed control at 5 g/ha (VIOTR [16]) [%] | further results |
| --- | --- | --- | --- | --- | --- | --- | --- | --- | --- | --- | --- | --- | --- | --- | --- | --- | --- | --- | --- | --- | --- |
| Cc1c(C(=O)Nc2nnnn2C)ccc(C(F)F)c1C(=O)NC1CC1 [Example 1-46] | 100 | 90 | 80 | 90 | 100 | 90 | 80 | 80 | 80 | 90 | 100 | 80 | 80 | 90 | 80 | 80 | 100 | 90 | 90 | 80 | pest or weed control at 20 g/ha (STEME [1]; dosage 20 g/ha): 90%; pest or weed control at 80 g/ha (STEME [1]; dosage 80 g/ha): 100%; pest or weed control at 20 g/ha (STEME [12]): 80%; pest or weed control at 20 g/ha (VIOTR [16]): 80%; pest or weed control at 20 g/ha (VIOTR [17]): 90%; pest or weed control at 80 g/ha (VIOTR [17]): 100%; pest or weed control at 80 g/ha (AVEFA [18]): 100%; pest or weed control at 20 g/ha (AMARE [19]): 100%; pest or weed control at 80 g/ha (AMARE [19]): 100%; pest or weed control at 80 g/ha (VERPE [20]): 90%; pest or weed control at 80 g/ha (SETVI [21]): 100%; pest or weed control at 80 g/ha (POLCO): 80%; pest or weed control at 5 g/ha (ECHCG [22]): 80%; pest or weed control at 20 g/ha (ECHCG [22]): 80%; pest or weed control at 5 g/ha (ABUTH [23]): 90%; pest or weed control at 20 g/ha (ABUTH [23]): 90%; pest or weed control at 20 g/ha (SETVI [24]): 80% |
| CCn1nnnc1NC(=O)c1ccc(C(F)(F)F)c(C(=O)NC2CC2)c1C1CC1 [Example 2-288] | 100 | 80 | 100 | 100 | 100 | 90 | 90 | 90 | 90 | 90 | 100 | 80 | 90 | 90 | 90 | 80 | 100 | 100 | 90 | 90 | pest or weed control at 20 g/ha (ECHCG [4]; 20 g/ha): 90%; pest or weed control at 5 g/ha (MATIN [7]; dosage 5 g/ha): 80%; pest or weed control at 20 g/ha (VIOTR [16]): 100%; pest or weed control at 20 g/ha (VIOTR [17]): 100%; pest or weed control at 80 g/ha (VIOTR [17]): 100%; pest or weed control at 80 g/ha (AVEFA [18]): 90%; pest or weed control at 20 g/ha (AVEFA [18]; 20 g/ha, scored visually after 3 weeks, 100% = plants have died, 0% = like control plants): 80%; pest or weed control at 20 g/ha (AMARE [19]): 100%; pest or weed control at 80 g/ha (AMARE [19]): 100%; pest or weed control at 80 g/ha (VERPE [20]): 100%; pest or weed control at 20 g/ha (SETVI [21]; dosage 20 g/ha): 90%; pest or weed control at 80 g/ha (SETVI [21]): 100%; pest or weed control at 80 g/ha (POLCO): 90%; pest or weed control at 5 g/ha (ECHCG [22]): 80%; pest or weed control at 20 g/ha (ECHCG [22]): 80%; pest or weed control at 5 g/ha (ABUTH [23]): 80%; pest or weed control at 20 g/ha (ABUTH [23]): 80%; pest or weed control at 5 g/ha (SETVI [24]; dosage 5 g/ha): 80%; pest or weed control at 20 g/ha (SETVI [24]): 90% |
